These results are taken from US20210221822A1, “TRICYCLIC DERIVATIVES INHIBITOR, PREPARATION METHOD, AND APPLICATIONS THEREOF” (Jiangsu Hansoh Pharmaceutical Group Co., Ltd., priority 2018, published 2021).

Series [1] is described as follows: Pharmacokinetic (PK) assay in mice. It is filed as in vivo. As to conditions: male, Balb/c, mouse, plasma, po, single intragastric 5 mg/kg. Summed up:
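Male Balb/c mice received a single intragastric dose of 5 mg/10 ml/kg in 0.5% CMC-Na. Orbital blood was taken at 0.5, 1, 2, 4, 6, 8 and 24 h into K2-EDTA; plasma was acetonitrile-precipitated and analyzed by LC-MS/MS, and PK parameters were calculated.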

The target in series [2] is T1, PI3Kβ (Homo sapiens, UniProt P42338).
T1 construct: purchased Carna 11-102
T1 sequence (P42338 whole entry): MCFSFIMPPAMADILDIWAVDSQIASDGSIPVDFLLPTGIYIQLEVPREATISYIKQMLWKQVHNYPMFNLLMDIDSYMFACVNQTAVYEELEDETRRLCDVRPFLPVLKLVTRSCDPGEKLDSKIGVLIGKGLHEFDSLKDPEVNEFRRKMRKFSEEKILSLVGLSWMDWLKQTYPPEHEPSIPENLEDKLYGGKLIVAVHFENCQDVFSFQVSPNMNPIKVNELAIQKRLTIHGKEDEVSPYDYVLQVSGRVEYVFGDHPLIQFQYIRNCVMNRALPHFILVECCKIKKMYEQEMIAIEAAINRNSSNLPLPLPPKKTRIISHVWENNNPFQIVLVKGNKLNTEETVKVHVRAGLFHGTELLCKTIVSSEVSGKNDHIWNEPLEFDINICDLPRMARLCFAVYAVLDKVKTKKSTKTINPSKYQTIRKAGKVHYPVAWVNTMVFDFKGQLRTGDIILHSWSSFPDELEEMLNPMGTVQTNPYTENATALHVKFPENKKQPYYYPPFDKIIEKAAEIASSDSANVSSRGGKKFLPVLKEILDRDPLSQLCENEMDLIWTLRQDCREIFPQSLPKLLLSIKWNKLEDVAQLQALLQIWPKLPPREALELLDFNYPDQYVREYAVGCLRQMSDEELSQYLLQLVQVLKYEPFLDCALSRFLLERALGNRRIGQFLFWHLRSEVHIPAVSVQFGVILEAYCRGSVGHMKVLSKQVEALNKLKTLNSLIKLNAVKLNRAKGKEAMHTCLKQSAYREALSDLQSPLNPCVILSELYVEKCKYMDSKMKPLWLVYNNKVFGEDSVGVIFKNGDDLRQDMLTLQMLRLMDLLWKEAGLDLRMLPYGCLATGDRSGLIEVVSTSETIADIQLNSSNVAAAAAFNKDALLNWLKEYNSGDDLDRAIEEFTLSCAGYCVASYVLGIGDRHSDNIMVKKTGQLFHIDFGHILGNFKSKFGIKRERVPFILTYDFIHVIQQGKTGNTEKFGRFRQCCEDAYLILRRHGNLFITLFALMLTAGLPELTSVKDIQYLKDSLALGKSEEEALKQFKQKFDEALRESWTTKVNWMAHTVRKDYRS
T1 sequence (P27986 whole entry partner): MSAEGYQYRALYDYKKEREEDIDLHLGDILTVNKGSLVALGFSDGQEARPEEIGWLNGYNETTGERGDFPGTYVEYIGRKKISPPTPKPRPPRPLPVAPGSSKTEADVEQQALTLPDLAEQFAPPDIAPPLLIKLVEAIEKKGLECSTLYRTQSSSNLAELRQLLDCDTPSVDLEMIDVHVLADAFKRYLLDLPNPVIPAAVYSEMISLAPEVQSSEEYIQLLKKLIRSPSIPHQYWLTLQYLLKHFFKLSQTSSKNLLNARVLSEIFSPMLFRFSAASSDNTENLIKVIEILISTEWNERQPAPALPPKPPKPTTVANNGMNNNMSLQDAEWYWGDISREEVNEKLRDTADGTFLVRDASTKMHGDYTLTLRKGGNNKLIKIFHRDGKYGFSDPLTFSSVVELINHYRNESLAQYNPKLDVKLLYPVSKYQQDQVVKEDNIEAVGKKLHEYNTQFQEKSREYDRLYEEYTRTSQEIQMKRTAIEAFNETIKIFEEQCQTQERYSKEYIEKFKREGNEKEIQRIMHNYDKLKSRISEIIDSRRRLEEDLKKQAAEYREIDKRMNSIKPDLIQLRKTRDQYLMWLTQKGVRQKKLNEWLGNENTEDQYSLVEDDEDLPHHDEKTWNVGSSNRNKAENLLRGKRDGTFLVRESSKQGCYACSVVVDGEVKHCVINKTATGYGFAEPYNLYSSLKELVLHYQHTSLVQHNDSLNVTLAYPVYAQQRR
Put plainly: ADP-Glo lipid kinase assay, PI3Kβ kinase activity. It is filed as biochemical. As to conditions: 0.4 nM enzyme, 90 min, 100 μM ATP. Summed up: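 ADP-Glo luminescence measured ADP formed by PI3Kα, β, γ or δ (0.1-2 nM working solution) with PIP2:3PS (50 μM added solution) and ATP in HEPES/MgCl2/NaCl/BSA buffer, 90 to 120 min at room temperature. % inhibition was set against DMSO and no-kinase controls, and IC50 came from a four-parameter fit.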

`C[C@H](Nc1ccc2c(c1)OCCn1cc(N3C(=O)COC[C@H]3C(F)F)nc1-2)C(N)=O` [Example 68, (S)-2-((2-((S)-3-(difluoromethyl)-5-oxomorpholino)-5,6-dihydrobenzo[f]imidazo[1,2-d][1,4]oxazepin-9-yl)amino)propanamide]: the AUC(0-t) in series [1] (read-out: Area under curve AUC0-t) amounted to 1.32 µg·h/mL. Also, in series [1] (read-out: Area under curve AUC0-∞), the AUC(0-inf) was found to be 1.34 µg·h/mL. The half-life in series [1] (read-out: Half-life t1/2(h) (converted)) was 1.6 h. Further, the MRT in series [1] (read-out: Mean residence time MRT) stood at 1.8 h. In addition, in series [1] (read-out: Peak time tmax), the Tmax turned out to be 0.5 h. In series [1] (read-out: Plasma concentration Cmax), the Cmax was found to be 0.641 µg/mL. In addition, the IC50 in series [2] was 0.198 µM.
